Laboratory results: US20200291350A1, “HEPATOCYTE CONSTRUCT AND METHOD FOR PRODUCING THE SAME” (NIHON KOHDEN CORPORATION, priority 2019, published 2020)

Tests used:
Type in all cases: cell-based
[1] = test system: mouse hepatocyte/NHDF cell sheet; test: Effect of added agent on ballooning of mouse hepatocytes in PMH/NHDF hepatocyte construct (H&E staining); conditions: metformin 500 μM added on day 1; mouse hepatocyte/NHDF cell sheet day 8
Description: (§1) At pre-determined time points, cell sheet samples were washed by pre-warmed PBS twice and fixed in 4% paraformaldehyde at room temperature for 1 h. Fixed cell sheets were embedded in paraffin, sliced into 4 μm sections and deparaffinized for standard histological staining with hematoxylin and eosin (HE). For immunostainings of cytokeratin 8+18 (CK8/18), sections were treated with Dako proteinase K (Agilent, Santa Clara, Calif., US) for antigen retrieval, incubated in Dako REAL peroxidase-blocking solution (Agilent) to quench endogenous peroxidase activity, and then blocked in Blocking One Histo (Nacalai Tesque, Kyoto, Japan). After that, the sections were incubated with mouse anti-human CK8/18 at 25-fold dilution (Abeam, Cambridge, UK) followed by incubation with horseradish […] donkey anti-mouse IgG H&L (Abeam). The sections were dyed with Dako Liquid DAB+Substrate Chromogen System (Agilent) and the nuclei were stained with hematoxylin. Finally, the sections were mounted, dried and imaged with a light microscope (Nikon).
Primary mouse hepatocytes (PMH) were obtained in the same manner as in Example 3.
As NHDFs, NHDFs used in Example 1 were used.
Primary mouse hepatocytes (PMH)/NHDF co-culture and production of a hepatocyte construct were performed in the same manner as in Example 1 except that PMHs were used in place of the above-mentioned PHHs. […]

PHH/NHDF cell sheet = test: Effect of added agent on ballooning of human hepatocytes in PHH/NHDF hepatocyte construct (H&E staining); conditions: metformin 500 μM added on day 1; PHH/NHDF cell sheet on day 11 or day 4
Description: as §1
As PHHs and NHDFs, PHHs and NHDFs used in Example 1 were used.
Primary human hepatocytes (PHH)/NHDF co-culture and production of a hepatocyte construct were performed in the same manner as in Example 1 described above. […]

[2] = test system: mouse hepatocyte/NHDF cell sheet; test: Hepatocellular ballooning in mouse hepatocyte/NHDF cell sheet made with mitomycin C-treated NHDFs (H&E staining); conditions: NHDFs treated with mitomycin C 6 μg/mL for 2.5 hours before co-culture with PMHs; cell sheet day 8; vs untreated NHDFs
Description: as §1
Primary mouse hepatocytes (PMH) were isolated from the liver of a mouse by a modified two-step collagenase perfusion method and purified by a 45% percoll density gradient centrifugation method. The viability of PMHs was 90%.
As NHDFs, NHDFs used in Example 1 were used. […]

| Compound | hepatocellular ballooning [1] | hepatocellular ballooning (PHH/NHDF cell sheet) | hepatocellular ballooning [2] |
| --- | --- | --- | --- |
| CN(C)C(=N)N=C(N)N [metformin] | suppressed | suppressed |  |
| CO[C@@]12[C@H](COC(N)=O)C3=C(C(=O)C(C)=C(N)C3=O)N1C[C@@H]1N[C@@H]12 [mitomycin C] |  |  | suppressed |
